This note sets out measurements from patent US7741023B2, “Method for predicting immune response to neoplastic disease based on mRNA expression profile in neoplastic cells and stimulated leukocytes” (Hitachi Chemical Co., Ltd., priority 2005, dated 2010).

For the experiment, the system named is TNF superfamily subtype 3 mRNA. Description: effect of dietary components on HAG-induced TNF superfamily subtype 3 mRNA in whole blood. The format is cell-based, human. Conditions: 100 nM, pre-incubation 37° C. 1 hour, then HAG; one individual, FIG. 10. On the procedure:
Triplicate aliquots of 50 μL each of heparinized whole blood was incubated with 200 μg/mL HAG at 37° C. for 2 hours. Then blood samples were applied to 96-well filterplates to trap leukocytes, and cell lysates were transferred to 96-well oligo(dT)-immobilized microplates for isolation of poly(A)^+ mRNA as described above. cDNA was synthesized on the microplates and was used for real-time polymerase chain reaction (PCR) in 384-well plates by monitoring SYBR Green fluorescence (see Morrison et al., Quantification of low-copy transcripts by continuous SYBR Green I monitoring during amplification. Biotechniques 1998; 24:954-8, 960, 96). […] The Ct was determined by analytical software (SDS, ABI). The PCR conditions were carefully optimized, so that a single appropriate peak was detected on melting curve analysis without any primer dimers. To validate the assay conditions, synthetic RNA34 was spiked into the lysis buffer, and this RNA34 was also quantitated by real time PCR. […] The Ct was set equal to the PCR cycle where certain amounts of PCR products were generated, and delta Ct (ΔCt) was also calculated by subtracting the Ct values of the un-stimulated samples from those of the stimulated samples. Since Ct is a log scale, 1 ΔCt means double or one half in quantity, and a negative ΔCt indicates an increase in expression. […]

Turning to `O=c1c(O)c(-c2ccc(O)c(O)c2)oc2cc(O)cc(O)c12` [quercetin], the “HAG-induced TNF superfamily subtype 3 expression in blood pre-exposed to dietary component” value is “significant (p=0.03) induction”.
